In article PMC6812656 (Cancer cell, 2019):

Columns and labels:
FTO [1] = molecular target: T1, FTO (Homo sapiens, UniProt Q9C0B1); experiment: HPLC-based assay of inhibition of FTO m6A demethylation in RNA; type: biochemical; settings: HPLC quantification
Target sequence in this assay (Q9C0B1 32-505 limits assumed): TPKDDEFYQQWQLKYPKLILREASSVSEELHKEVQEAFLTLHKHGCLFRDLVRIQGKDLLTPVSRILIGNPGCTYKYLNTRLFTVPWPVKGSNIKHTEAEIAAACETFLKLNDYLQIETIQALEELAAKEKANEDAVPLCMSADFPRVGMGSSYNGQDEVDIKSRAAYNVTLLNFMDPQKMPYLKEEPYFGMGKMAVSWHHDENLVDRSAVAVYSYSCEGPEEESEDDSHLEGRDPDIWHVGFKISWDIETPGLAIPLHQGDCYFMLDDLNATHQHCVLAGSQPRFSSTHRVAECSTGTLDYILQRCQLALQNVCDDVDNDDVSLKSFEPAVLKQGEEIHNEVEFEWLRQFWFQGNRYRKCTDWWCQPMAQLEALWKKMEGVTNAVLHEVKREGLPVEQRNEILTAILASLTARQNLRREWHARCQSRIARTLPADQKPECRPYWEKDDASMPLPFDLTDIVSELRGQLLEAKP

ALKBH5 [2] = molecular target: T2, ALKBH5 (Homo sapiens, UniProt Q6P6C2); experiment: HPLC-based assay of inhibition of ALKBH5 m6A demethylation in RNA; type: biochemical
Target sequence in this assay (Q6P6C2 67-394 limits assumed): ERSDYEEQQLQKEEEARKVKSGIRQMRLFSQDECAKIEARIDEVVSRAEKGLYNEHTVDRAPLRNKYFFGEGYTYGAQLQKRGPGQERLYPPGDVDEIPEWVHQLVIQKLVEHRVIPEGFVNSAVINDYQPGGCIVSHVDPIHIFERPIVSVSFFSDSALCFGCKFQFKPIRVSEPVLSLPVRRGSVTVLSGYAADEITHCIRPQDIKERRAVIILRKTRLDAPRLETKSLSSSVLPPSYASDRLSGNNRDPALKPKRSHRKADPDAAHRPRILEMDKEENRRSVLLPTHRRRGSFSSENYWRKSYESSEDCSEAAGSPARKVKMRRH

NB4 and MONOMAC6 cells = experiment: Cell proliferation assay, NB4 and MONOMAC6; type: cell-based; settings: Homo sapiens, MONO-MAC-6, 72 h, read-out: IC50, anti-proliferative activity
[3] = test system: MA9.3ITD, MA9.3RAS, U937, ML-2 and MV4-11 AML cell lines; experiment: Cell proliferation assay, panel of additional AML cell lines; type: cell-based; settings: Homo sapiens, 96 h, read-out: IC50, proliferation
human primary AML cells = experiment: Cell proliferation assay, primary AML cells from four patients; type: cell-based; settings: 96 h, read-out: IC50, proliferation of primary AML cells
[4] = test system: human normal bone marrow (BM) cells; experiment: Proliferation of normal bone marrow cells; type: cell-based; settings: BM cells from a healthy donor
FTO [5] = molecular target: T1, FTO; experiment: DARTS assay for FTO in AML cell lysates; type: binding; settings: 50, 200, 500 μM
Target sequence in this assay (Q9C0B1 whole entry): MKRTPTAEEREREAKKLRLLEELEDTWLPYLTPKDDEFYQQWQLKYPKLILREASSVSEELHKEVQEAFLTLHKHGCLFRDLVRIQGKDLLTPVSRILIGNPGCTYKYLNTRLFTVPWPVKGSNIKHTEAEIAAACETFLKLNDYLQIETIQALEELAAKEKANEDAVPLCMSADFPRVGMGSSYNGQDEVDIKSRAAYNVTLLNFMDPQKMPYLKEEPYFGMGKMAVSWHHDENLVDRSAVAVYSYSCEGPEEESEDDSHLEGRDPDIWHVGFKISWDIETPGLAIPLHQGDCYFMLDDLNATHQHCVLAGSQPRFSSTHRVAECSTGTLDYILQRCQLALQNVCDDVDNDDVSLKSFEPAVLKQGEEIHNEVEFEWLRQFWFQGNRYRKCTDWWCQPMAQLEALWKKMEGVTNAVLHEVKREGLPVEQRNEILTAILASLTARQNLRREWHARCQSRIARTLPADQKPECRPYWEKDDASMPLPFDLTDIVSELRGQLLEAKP

ALKBH5 [6] = molecular target: T2, ALKBH5; experiment: DARTS assay for ALKBH5 in AML cell lysates; type: binding
Target sequence in this assay (Q6P6C2 whole entry): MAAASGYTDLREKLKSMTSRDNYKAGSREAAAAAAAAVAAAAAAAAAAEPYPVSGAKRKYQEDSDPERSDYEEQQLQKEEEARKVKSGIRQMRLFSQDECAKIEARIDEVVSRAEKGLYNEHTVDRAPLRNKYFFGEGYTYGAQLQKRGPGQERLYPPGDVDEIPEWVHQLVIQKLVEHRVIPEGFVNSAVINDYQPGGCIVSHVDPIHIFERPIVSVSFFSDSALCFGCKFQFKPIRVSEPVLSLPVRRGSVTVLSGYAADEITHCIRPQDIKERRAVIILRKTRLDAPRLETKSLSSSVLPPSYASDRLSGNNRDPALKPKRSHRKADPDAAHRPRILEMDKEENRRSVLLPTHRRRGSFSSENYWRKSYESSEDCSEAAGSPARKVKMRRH

[7] = test system: HDAC, DOTL1, BRD, LSD1 and Jumonji domain-containing histone demethylases; experiment: Inhibition of epigenetic enzymes in vitro; type: biochemical
TET1 protein = molecular target: T3, TET1 protein (Homo sapiens, UniProt Q8NFU7); experiment: TET1 enzyme activity in vitro; type: biochemical; settings: 20 μM
T3 sequence (Q8NFU7 1418-2136 limits assumed): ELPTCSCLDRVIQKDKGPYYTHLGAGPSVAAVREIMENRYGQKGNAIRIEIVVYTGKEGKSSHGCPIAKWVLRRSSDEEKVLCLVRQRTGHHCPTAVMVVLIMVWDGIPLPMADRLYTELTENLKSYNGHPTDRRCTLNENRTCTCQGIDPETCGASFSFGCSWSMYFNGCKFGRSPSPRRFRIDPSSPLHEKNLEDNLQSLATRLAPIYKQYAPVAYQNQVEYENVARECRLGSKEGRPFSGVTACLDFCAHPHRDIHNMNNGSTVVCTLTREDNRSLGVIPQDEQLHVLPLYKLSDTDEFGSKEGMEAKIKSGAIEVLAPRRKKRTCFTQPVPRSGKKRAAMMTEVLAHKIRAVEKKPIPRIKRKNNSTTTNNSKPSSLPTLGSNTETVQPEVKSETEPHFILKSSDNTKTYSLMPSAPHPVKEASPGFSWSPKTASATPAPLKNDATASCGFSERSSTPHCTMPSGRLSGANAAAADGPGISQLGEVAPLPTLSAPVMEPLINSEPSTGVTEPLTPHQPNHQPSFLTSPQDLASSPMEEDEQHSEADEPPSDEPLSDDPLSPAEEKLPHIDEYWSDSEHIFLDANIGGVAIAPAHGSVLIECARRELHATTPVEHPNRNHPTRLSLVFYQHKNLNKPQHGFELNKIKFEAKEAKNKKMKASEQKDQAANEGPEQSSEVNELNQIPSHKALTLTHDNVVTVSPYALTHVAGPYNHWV

oncogenic proteases = experiment: Protease profiling; type: biochemical, human; settings: 1 μM or 10 μM
COX-1 = molecular target: T4, COX-1 (Ovis aries, UniProt P05979); experiment: COX fluorescent inhibitor screening assay, COX-1; type: biochemical; settings: even at 50 μM
T4 sequence (P05979 25-600): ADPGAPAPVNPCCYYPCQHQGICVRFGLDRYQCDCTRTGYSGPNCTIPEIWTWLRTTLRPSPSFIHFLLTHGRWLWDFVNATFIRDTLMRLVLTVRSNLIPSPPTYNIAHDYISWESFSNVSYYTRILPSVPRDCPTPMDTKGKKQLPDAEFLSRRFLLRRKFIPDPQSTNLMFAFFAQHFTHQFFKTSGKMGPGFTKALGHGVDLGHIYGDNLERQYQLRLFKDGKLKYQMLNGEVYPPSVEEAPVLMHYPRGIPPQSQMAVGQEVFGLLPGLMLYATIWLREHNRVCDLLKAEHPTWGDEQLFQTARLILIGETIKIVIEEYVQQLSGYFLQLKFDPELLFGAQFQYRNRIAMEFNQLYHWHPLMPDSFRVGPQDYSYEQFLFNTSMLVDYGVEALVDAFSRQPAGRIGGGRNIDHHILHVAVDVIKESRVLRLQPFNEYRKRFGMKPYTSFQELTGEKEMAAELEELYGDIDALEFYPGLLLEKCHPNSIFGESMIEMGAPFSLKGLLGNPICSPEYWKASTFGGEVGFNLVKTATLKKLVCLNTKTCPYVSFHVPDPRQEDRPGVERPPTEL

COX-2 = molecular target: T5, COX-2 (Homo sapiens, UniProt P35354); experiment: COX fluorescent inhibitor screening assay, COX-2; type: biochemical; settings: even at 50 μM
T5 sequence (P35354 18-604): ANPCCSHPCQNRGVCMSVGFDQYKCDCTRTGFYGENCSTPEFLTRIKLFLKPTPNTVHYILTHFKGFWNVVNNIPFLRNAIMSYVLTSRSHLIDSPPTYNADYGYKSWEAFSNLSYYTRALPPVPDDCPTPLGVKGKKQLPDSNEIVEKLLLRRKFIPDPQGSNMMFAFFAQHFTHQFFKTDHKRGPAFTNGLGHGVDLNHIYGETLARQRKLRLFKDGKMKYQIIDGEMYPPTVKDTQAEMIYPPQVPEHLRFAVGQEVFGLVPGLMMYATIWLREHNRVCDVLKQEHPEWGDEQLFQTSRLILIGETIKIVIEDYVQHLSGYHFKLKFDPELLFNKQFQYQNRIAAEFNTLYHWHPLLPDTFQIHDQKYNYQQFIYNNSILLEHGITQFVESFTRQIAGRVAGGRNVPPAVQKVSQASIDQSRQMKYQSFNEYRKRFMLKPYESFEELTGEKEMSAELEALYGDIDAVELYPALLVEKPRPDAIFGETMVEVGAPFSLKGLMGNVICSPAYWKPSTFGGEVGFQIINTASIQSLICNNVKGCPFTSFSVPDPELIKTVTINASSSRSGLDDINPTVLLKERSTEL

[8] = test system: m6A peaks in mRNA of MONOMAC6 AML cells; experiment: m6A-seq in MONOMAC6 cells; type: cell-based, human; settings: 5 μM, 72 hr, peaks identified in both DMSO and treated groups
[9] = Toxicity study in BALB/c mice; type: in vivo; settings: 20 mg/kg i.p. daily for 14 days
[10] = Pharmacokinetics in SD rats; type: in vivo; settings: male, Sprague Dawley, rat, plasma, ip, 3 mg/kg
[11] = Microsomal stability assay; type: in vitro ADME; settings: SD, rat, liver microsomes
MONOMAC6 AML cells = experiment: MONOMAC6 xeno-transplantation leukemic model; type: in vivo, NSGS mice; settings: 2 mg/kg i.p. daily for 10 days, from 10 days post xeno-transplantation
[12] = test system: primary AML cells (patient Pt 2017_63); experiment: PDX AML mouse model; settings: 6 mg/kg/day i.p. for 17 days
[13] = test system: functional primary AML LSCs; experiment: Secondary transplantation of PDX AML cells; settings: AML cells from primary FB23-2-treated PDX mice
NB4 cells [14] = experiment: Cell proliferation assay, NB4; type: cell-based; settings: Homo sapiens, NB-4, 72 h, read-out: IC50, proliferation
MONOMAC6 cells [15] = experiment: Cell proliferation assay, MONOMAC6; type: cell-based; settings: Homo sapiens, MONO-MAC-6, 72 h, read-out: IC50, proliferation
NB4 cells [16] = experiment: Cellular uptake by LC-MS/MS quantitation, NB4; type: cell-based, human; settings: 10 μM for 24 hr
MONOMAC6 cells [17] = experiment: Cellular uptake by LC-MS/MS quantitation, MONOMAC6; type: cell-based, human; settings: 10 μM for 24 hr

Cc1noc(C)c1-c1cc(Cl)c(Nc2ccccc2C(=O)NO)c(Cl)c1 [FB23-2, 2-((2,6-dichloro-4-(3,5-dimethylisoxazol-4-yl)phenyl)amino)-N-hydroxybenzamide]
inhibitory activity on FTO demethylation in vitro (FTO [1]): maintains inhibitory activity | inhibition of ALKBH5 demethylation in vitro (ALKBH5 [2]): neither FB23 nor FB23-2 inhibits | IC50 (NB4 and MONOMAC6 cells): 0.8 to 1.5 µM | IC50 [3]: 1.9 to 5.2 µM | IC50 (human primary AML cells): 1.6 to 16 µM | effect on proliferation of normal BM cells [4]: minimally altered proliferation | protease resistance of FTO protein (DARTS) (FTO [5]): protease-resistant | direct binding to ALKBH5 (DARTS) (ALKBH5 [6]): could not directly bind | effect on activities of epigenetic targets in vitro [7]: slightly attenuated | inhibition of TET1 protein in vitro (TET1 protein): minimally inhibited | inhibition of oncogenic proteases (oncogenic proteases): barely inhibited | inhibition of COX-1 (COX-1): neither FB23 nor FB23-2 was observed to significantly inhibit | inhibition of COX-2 (COX-2): neither FB23 nor FB23-2 was observed to significantly inhibit | share of m6A peaks increased upon treatment [8]: 62.1% | body weight loss [9]: no evidence of body weight loss | hematopoiesis (hematology and plasma biochemistry) vs vehicle [9]: no significant difference | physical damage on organs [9]: nor was any physical damage observed | AUC(0-t) [10]: 2180 ± 152 ng·h/mL | Cmax [10]: 2420 ± 90.9 ng/mL | Tmax [10]: 4.8 min | half-life [10]: 6.7 ± 1.3 h | CLint scaled at 3 μM [11]: 19.7 mL/min/kg | half-life at 3 μM [11]: 2.13 h | survival of leukemic mice (MONOMAC6 AML cells): almost doubling the median survival | median survival time [12]: 58 days | secondary PDX mice still surviving after 100 days [13]: 50%

Cc1noc(C)c1-c1cc(Cl)c(Nc2ccccc2C(=O)O)c(Cl)c1 [FB23, 2-((2,6-dichloro-4-(3,5-dimethylisoxazol-4-yl)phenyl)amino)benzoic acid]
inhibition of ALKBH5 demethylation in vitro (ALKBH5 [2]): neither FB23 nor FB23-2 inhibits | IC50 (NB4 cells [14]): 44.8 µM | IC50 (MONOMAC6 cells [15]): 23.6 µM | intracellular concentration (NB4 cells [16]): 0.02 nmol/million | intracellular concentration (MONOMAC6 cells [17]): 0.015 nmol/million | effect on activities of epigenetic targets in vitro [7]: slightly attenuated | inhibition of COX-1 (COX-1): neither FB23 nor FB23-2 was observed to significantly inhibit | inhibition of COX-2 (COX-2): neither FB23 nor FB23-2 was observed to significantly inhibit
